# Laboratory results from patent publication US20190077766A1, “Compositions For APP-Selective BACE Inhibition And Uses Therefor” (NantNeuro, LLC, priority 2015, published 2019).
# Values joined by “and” are separate entries in the source; they are usually repeats but may differ in a detail not shown here. Identical values can stand only once.
# Tested on: not listed separately
# Assay: pharmacokinetics, brain level (Cmax brain)
# Type: in vivo
# Details: 10 mg/kg 5Q
# Description: As is readily apparent, not all compounds were equally able to cross the blood brain barrier, but most compounds did reach pharmacologically meaningful levels given their low IC50 values. FIG. 5A provides a further exemplary compound (FAH65) and FIG. 5B depicts dose response data for Aβ1-42 production in a cell based system. Further shown are effects observed with regard to Aβ1-42 production, sAPPβ and sAPPα formation. […] Here, data are presented for oral and subcutaneous administration (SQ) at dosages of 10- and 30 mg/kg. […] Once more, it should be noted that these exemplary compounds are preferential towards APP in BACE inhibition as can be taken from the data for Aβ1-42, sAPPβ, and sAPPα formation.
row,SMILES,Cmax brain [µM]
1,Cc1cc(C2(c3cccc(F)c3)N=C(N)N(C)C2=O)ccc1OC(F)F (stereo not shown) [FAH-17],~0.3
2,Cc1cc(C2(c3cccc(-c4cccnc4)c3)N=C(N)N(C)C2=O)ccc1OC(F)F (stereo not shown) [FAH-32],<0.02
3,COCc1cccc(C2(c3ccc(OC(F)F)c(C)c3)N=C(N)N(C)C2=O)c1 (stereo not shown) [FAH-44],~0.2
4,Cc1cc(C2(c3ccnc(F)c3)N=C(N)N(C)C2=O)ccc1OC(F)F (stereo not shown) [FAH-46],~0.3

# Same assay, conditions: 30 mg/kg
row,SMILES,Cmax brain [μM @ 30 mL]
1,Cc1cc(C2(c3ccnc(F)c3)N=C(N)N(C)C2=O)ccc1OC(F)F (stereo not shown) [FAH-46],1.3

# Same assay, conditions: (IP); no unit in the cell, neighbours μM
row,SMILES,Cmax brain
1,Cc1cc(C2(c3cncc(F)c3)N=C(N)N(C)C2=O)ccc1OC(F)F (stereo not shown) [FAH-37],~0.11 (IP)

# Tested on: CHO-7W cells that were stably transfected with human APP (wildtype)
# Assay: Secondary cell-based APP processing assay (sAPPalpha, sAPPbeta, Abeta 1-42)
# Details: Secondary (1st test, n = 3); ↑ = increase
# Description: Cellular Assays: Numerous cell-based assays can be used to evaluate the activity of agent(s) of interest on relative alpha-secretase activity to beta-secretase activity and/or processing of APP to release amyloidogenic versus non-amyloidogenic oligomers.
# Human cell lines that normally process Aβ from APP provide a useful means to assay inhibitory activities of the agent(s). Production and release of Aβ and/or other cleavage products into the culture medium can be measured, for example by immunoassay, such as Western blot or enzyme-linked immunoassay (EIA) such as by ELISA.
# Relative activity of the alpha-secretase to the beta-secretase can be measured by analysis of one or more cleavage products of the APP substrate. For example, inhibition of beta-secretase activity against the substrate APP would be expected to decrease release of specific beta-secretase induced APP cleavage products such as Aβ (e.g., Aβ40 or Aβ42), sAPPβ and APPneo. Promotion or enhancement of alpha-secretase activity against the substrate APP would be expected to increase release of specific alpha-secretase induced APP cleavage products such as sAPPα and p3 peptide.
# In such assays, for example, the cells expressing APP, alpha-secretase and/or beta-secretase are incubated in a culture medium under conditions suitable for alpha-secretase and/or beta-secretase enzymatic activity at its cleavage site on the APP substrate. On exposure of the cells to the agent(s), the amount of Aβ released into the medium and/or the amount of CTF99 fragments of APP in the cell lysates is reduced as compared with the control. The cleavage products of APP can be analyzed, for example, by immune reactions with specific antibodies, as discussed above.
row,SMILES,sAPPalpha
1,COCc1cccc(C2(c3ccc(OC(F)F)c(C)c3)N=C(N)N(C)C2=O)c1 (stereo not shown) [FAH-44],↑>10%

# Same assay, conditions: Secondary (1st test, n = 3); ↓ = decrease
row,SMILES,sAPPbeta
1,Cc1cc(F)cc(C2(c3ccc(OC(F)F)c(C)c3)N=C(N)N(C)C2=O)c1 (stereo not shown) [FAH-22],↓>20%

# Same assay, conditions: Table 2; one cell for the whole line
SMILES,"Secondary (sAPPalpha, sAPPbeta, sAPP(α/β), Abeta 1-42, sAPPa/Aβ)",Toxicity in secondary cell assay
Cc1cc(C2(c3cocn3)N=C(N)N(C)C2=O)ccc1OC(F)F (stereo not shown) [FAH-38],unchanged,
Cc1cc(C2(C3CCCCC3)N=C(N)N(C)C2=O)ccc1OC(F)F (stereo not shown) [FAH-59],,Toxic

# Same assay, conditions: in words; FIG. 1D
SMILES,sAPPα formation,sAPPβ formation
Cc1cc(C2(c3cccc(-c4cccnc4)c3)N=C(N)N(C)C2=O)ccc1OC(F)F (stereo not shown) [FAH-32],increased sAPPα formation as compared to FAH17,reduced as compared to FAH17

# Same assay, conditions: in words; cell based
row,SMILES,Aβ1-42 peptide formation / production
1,Cc1cc(C2(c3cccc(-c4cccnc4)c3)N=C(N)N(C)C2=O)ccc1OC(F)F (stereo not shown) [FAH-32],substantially reduced
2,Cc1cc(C2(c3cc(-c4cccnc4)ccn3)N=C(N)N(C)C2=O)ccc1OC(F)F (stereo not shown) [FAH-65],strongly reduces

# Same assay, conditions: in words; from Aβ1-42, sAPPβ and sAPPα formation
row,SMILES,preference (selectivity) towards APP in BACE inhibition
1,Cc1cc(C2(c3cccc(-c4cccnc4)c3)N=C(N)N(C)C2=O)ccc1OC(F)F (stereo not shown) [FAH-32],higher selectivity of FAH32 towards APP
2,Cc1cc(C2(c3cc(-c4cccnc4)ccn3)N=C(N)N(C)C2=O)ccc1OC(F)F (stereo not shown) [FAH-65],clear preference towards APP

# Target: T1, BACE1 (Homo sapiens, UniProt P56817)
# T1 construct: purchased R&D 931-AS-050
# T1 sequence (P56817 46-457 limits assumed): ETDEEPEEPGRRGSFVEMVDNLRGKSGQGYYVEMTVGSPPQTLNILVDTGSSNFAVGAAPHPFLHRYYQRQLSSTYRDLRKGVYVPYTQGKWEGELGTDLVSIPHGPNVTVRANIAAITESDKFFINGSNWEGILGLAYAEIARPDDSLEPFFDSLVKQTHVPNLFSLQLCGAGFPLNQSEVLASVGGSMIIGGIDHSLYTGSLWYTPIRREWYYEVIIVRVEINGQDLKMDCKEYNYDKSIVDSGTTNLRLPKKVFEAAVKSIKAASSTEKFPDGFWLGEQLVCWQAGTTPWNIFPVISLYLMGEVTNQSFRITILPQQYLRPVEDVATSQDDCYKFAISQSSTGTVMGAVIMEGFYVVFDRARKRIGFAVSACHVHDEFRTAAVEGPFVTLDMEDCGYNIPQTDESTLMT
# Assay: in vitro BACE inhibition assay (Primary BACE1 IC50)
# Type: biochemical
# Details: Table 3; read-out: IC50
# Description: ABBI Assay: APP Binding BACE Inhibitor (ABBI) activity of any of the compounds described herein can readily be verified using, for example, assays described herein. Basically, in certain embodiments a pair the assays are utilized to identify ABBI compounds that inhibit BACE cleavage of the MBP-C125 APP substrate, resulting in the inhibition of the production of C99 and the β-site peptide substrate (P5-P5′) and also interacts with APP, for example, as measured by surface plasmon resonance (SPR) analysis. In one illustrative embodiment, an MBP-C125 APP695 wt fusion protein can be used as one of the substrates and the second substrate can be the commercially available P5-P5′ fluorescence substrate.
row,SMILES,IC50 [µM]
1,Cc1cc(C2(c3cccc(F)c3)N=C(N)N(C)C2=O)ccc1OC(F)F (stereo not shown) [FAH-17],~0.1
2,COCc1cccc(C2(c3ccc(OC(F)F)c(C)c3)N=C(N)N(C)C2=O)c1 (stereo not shown) [FAH-44],~0.025

# Second part, the compound after the results:
row,IC50 [µM],SMILES
1,~0.06,Cc1cc(C2(c3cccc(-c4cccnc4)c3)N=C(N)N(C)C2=O)ccc1OC(F)F (stereo not shown) [FAH-32]
2,~5.3,Cc1cc(C2(c3cncc(F)c3)N=C(N)N(C)C2=O)ccc1OC(F)F (stereo not shown) [FAH-37]
3,~1.2,Cc1cc(C2(c3ccnc(F)c3)N=C(N)N(C)C2=O)ccc1OC(F)F (stereo not shown) [FAH-46]
4,~0.06,CNCc1cccc(C2(c3ccc(OC(F)F)c(C)c3)N=C(N)N(C)C2=O)c1 (stereo not shown) [FAH-62]

# Same assay, conditions: Table 4; several values in a cell = several determinations; read-out: BACE1 IC50
row,SMILES,IC50
1,CN1C(=O)C(c2ccccc2)(c2cc(F)cc(F)c2)N=C1N (stereo not shown) [FAH-01],2.67 µM and 4.7 µM
2,CN1C(=O)C(c2ccc(OC(F)F)cc2)(c2cc(F)cc(F)c2)N=C1N (stereo not shown) [FAH-02],2.13 µM and 9.2 µM
3,CN1C(=O)C(c2cc(F)cc(F)c2)(c2cccc(OC(F)F)c2)N=C1N (stereo not shown) [FAH-04],2.23 µM and 3.5 µM
4,Cc1cc(C)cc(C2(c3cc(F)cc(F)c3)N=C(N)N(C)C2=O)c1 (stereo not shown) [FAH-05],6.46 µM
5,COc1ccc(C2(c3cc(F)cc(F)c3)N=C(N)N(C)C2=O)cc1C (stereo not shown) [FAH-06],0.6 µM and 4.1 µM
6,COCc1cccc(C2(c3ccc(OC(F)F)c(C)c3)N=C(N)N(C)C2=O)c1 (stereo not shown) [FAH-44],0.3 µM and 0.05 µM

# Further lines, results first:
row,IC50,SMILES
1,2.3 µM,COc1ccc(C2(c3ccc(F)cc3F)N=C(N)N(C)C2=O)cc1C (stereo not shown) [FAH-08]
2,1.4 µM,COc1ccc(C2(c3cc(C)c(F)cc3F)N=C(N)N(C)C2=O)cc1C (stereo not shown) [FAH-09]
3,1.6 µM,Cc1cc(C2(c3cc(F)cc(F)c3)N=C(N)N(C)C2=O)ccc1F (stereo not shown) [FAH-10]
4,1.8 µM,COc1ccc(C2(c3cc(F)cc(F)c3)N=C(N)N(C)C2=O)cn1 (stereo not shown) [FAH-11]
5,2.6 µM,COc1ccc(C2(c3cc(F)cc(F)c3)N=C(N)N(C)C2=O)cc1F (stereo not shown) [FAH-12]
6,1.5 µM,CN1C(=O)C(c2cc(F)cc(F)c2)(c2ccc(F)c(F)c2)N=C1N (stereo not shown) [FAH-14]
7,2 µM,CN1C(=O)C(c2cc(F)cc(F)c2)(c2ccnc(F)c2)N=C1N (stereo not shown) [FAH-15]
8,0.07 µM and 0.05 µM,Cc1cc(C2(c3cccc(-c4cccnc4)c3)N=C(N)N(C)C2=O)ccc1OC(F)F (stereo not shown) [FAH-32]
9,15.3 µM,Cc1cc(C2(c3cocn3)N=C(N)N(C)C2=O)ccc1OC(F)F (stereo not shown) [FAH-38]
10,1.6 µM,Cc1cc(C2(c3ccnc(F)c3)N=C(N)N(C)C2=O)ccc1OC(F)F (stereo not shown) [FAH-46]
11,1.5 µM and 0.75 µM,Cc1cc(C2(C3CCCCC3)N=C(N)N(C)C2=O)ccc1OC(F)F (stereo not shown) [FAH-59]
12,0.37 µM,CNCc1cccc(C2(c3ccc(OC(F)F)c(C)c3)N=C(N)N(C)C2=O)c1 (stereo not shown) [FAH-62]

# Same assay, conditions: Tables 1 and 2; read-out: Primary BACE1 IC50
row,SMILES,IC50 [µM]
1,Cc1cc(C2(c3cccc(F)c3)N=C(N)N(C)C2=O)ccc1OC(F)F (stereo not shown) [FAH-17],0.15
2,COCc1cccc(C2(c3ccc(OC(F)F)c(C)c3)N=C(N)N(C)C2=O)c1 (stereo not shown) [FAH-44],0.3

# Next, values leading:
row,IC50 [µM],SMILES
1,0.07,Cc1cc(C2(c3cccc(-c4cccnc4)c3)N=C(N)N(C)C2=O)ccc1OC(F)F (stereo not shown) [FAH-32]
2,5.3,Cc1cc(C2(c3cncc(F)c3)N=C(N)N(C)C2=O)ccc1OC(F)F (stereo not shown) [FAH-37]
3,> 10,Cc1cc(C2(c3cocn3)N=C(N)N(C)C2=O)ccc1OC(F)F (stereo not shown) [FAH-38]
4,1.2,Cc1cc(C2(c3ccnc(F)c3)N=C(N)N(C)C2=O)ccc1OC(F)F (stereo not shown) [FAH-46]
5,1.5,Cc1cc(C2(C3CCCCC3)N=C(N)N(C)C2=O)ccc1OC(F)F (stereo not shown) [FAH-59]
6,0.6,CNCc1cccc(C2(c3ccc(OC(F)F)c(C)c3)N=C(N)N(C)C2=O)c1 (stereo not shown) [FAH-62]

# Same assay, conditions: in words; FIG. 2B
row,SMILES,reducing BACE activity in vitro
1,Cc1cc(C2(c3cncc(F)c3)N=C(N)N(C)C2=O)ccc1OC(F)F (stereo not shown) [FAH-37],less effective

# Tested on: not listed separately
# Assay: solubility (Sol)
# Type: physicochemical
# Details: Table 3; in words
row,SMILES,Sol
1,Cc1cc(C2(c3cccc(F)c3)N=C(N)N(C)C2=O)ccc1OC(F)F (stereo not shown) [FAH-17],med
2,COCc1cccc(C2(c3ccc(OC(F)F)c(C)c3)N=C(N)N(C)C2=O)c1 (stereo not shown) [FAH-44],med

# The remaining lines, values ahead:
row,Sol,SMILES
1,Sol: good,Cc1cc(C2(c3cccc(-c4cccnc4)c3)N=C(N)N(C)C2=O)ccc1OC(F)F (stereo not shown) [FAH-32]
2,good,Cc1cc(C2(c3cncc(F)c3)N=C(N)N(C)C2=O)ccc1OC(F)F (stereo not shown) [FAH-37]
3,good,Cc1cc(C2(c3ccnc(F)c3)N=C(N)N(C)C2=O)ccc1OC(F)F (stereo not shown) [FAH-46]
4,excellent,CNCc1cccc(C2(c3ccc(OC(F)F)c(C)c3)N=C(N)N(C)C2=O)c1 (stereo not shown) [FAH-62]
